From PMC10716780, “The multistep oxidation of cholesterol to pregnenolone by human cytochrome P450 11A1 is highly processive” (The Journal of Biological Chemistry, 2023)

Target: T1, human P450 11A1 (Homo sapiens, UniProt P05108)
T1 sequence (P05108 41-521 limits assumed): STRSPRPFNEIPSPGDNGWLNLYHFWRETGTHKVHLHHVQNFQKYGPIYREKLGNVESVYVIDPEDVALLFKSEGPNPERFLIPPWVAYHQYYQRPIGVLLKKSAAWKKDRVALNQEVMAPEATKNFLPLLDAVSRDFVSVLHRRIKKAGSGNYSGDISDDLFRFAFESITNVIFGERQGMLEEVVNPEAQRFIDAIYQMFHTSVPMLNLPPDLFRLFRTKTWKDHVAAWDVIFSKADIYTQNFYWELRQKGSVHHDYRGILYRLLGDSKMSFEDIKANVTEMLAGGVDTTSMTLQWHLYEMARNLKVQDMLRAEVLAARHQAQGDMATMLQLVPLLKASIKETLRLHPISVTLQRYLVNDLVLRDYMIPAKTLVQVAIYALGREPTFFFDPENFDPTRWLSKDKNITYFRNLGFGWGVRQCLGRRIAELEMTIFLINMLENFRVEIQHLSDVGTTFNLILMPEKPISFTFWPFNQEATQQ
T1 sequence (P00257 59-186 partner): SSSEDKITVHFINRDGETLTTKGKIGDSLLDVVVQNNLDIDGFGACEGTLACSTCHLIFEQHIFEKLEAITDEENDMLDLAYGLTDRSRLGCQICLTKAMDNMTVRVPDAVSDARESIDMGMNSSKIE
Test: Single-turnover kinetics of P450 11A1 with [1,2-3H]-cholesterol (radio-HPLC)
Format: biochemical
Set-up: M A S T R S P R P F N E I P S P G D N; Met-Ala (N-terminal start residues in place of the transit peptide and Ile40) (N); made in house; host or cells: E. coli (P450 11A1 in C41(DE3); Adx and AdR in E. coli)
Method: In this reaction, a 5 μM complex of P450 11A1 and 4.5 μM cholesterol was assembled, and Adx was added at either equimolar (low, 5 μM) or 10-fold excess (high, 50 μM) concentrations (along with 10 μM AdR). The complex was diluted 2-fold (with 5 mM NADPH) in the apparatus to initiate the reaction, which was quenched at variable times. The products of the reaction were extracted and quantified by radio-HPLC. […] (The analysis of kinetic modeling is described below.)
P450 11A1 (5 μM) was reconstituted with its redox partners AdR (10 μM) and Adx (5 μM) on ice (10 min) prior to dilution in potassium Hepes buffer (50 mM, pH 7.4) and H2O and the addition of ^3H-cholesterol substrate (4.5 μM, 0.5 Ci/mmol). The concentration of substrate was deliberately kept slightly below the enzyme concentration to ensure that single-turnover conditions were strictly followed. The mixture (0.75 ml) was preincubated (37 °C, 5 min) in a shaking water bath prior to initiation with an equal volume of NADPH solution (5 mM, from a 10 mM stock in 50 mM potassium Hepes buffer, pH 7.4), thus reducing the concentrations of all enzymes and substrate to one-half their starting concentrations. After completing the desired incubation time, an aliquot (200 μl) was removed from the incubation and added to vials containing aqueous HCl (800 μl, 1 M). The quenched reactions were mixed with a vortex device and placed on ice. When the time course was complete, the quenched reactions were mixed with CH2Cl2 (5 ml) to extract reaction products and were centrifuged (10^3g, 5 min, 23 °C) to separate layers, and the organic (bottom) layers were transferred (4 ml) to fresh glass vials. The extraction process was repeated and the two extracts (2 × 4 ml) from each sample were combined to maximize product recovery. Samples (8 ml) were brought to dryness under a stream of nitrogen, and the dried residues were dissolved in CH3OH (75 μl) and transferred to autosampler vials for analysis by radio-HPLC.
Enzyme and NADPH solutions were prepared as described for the benchtop experiments (above) but with the modification that the concentration of Adx was increased to 50 μM (from 5 μM). […] The rapid quench-flow is a rapid mixing device that combines equal volumes (∼19 μl) of two solutions (P450 and NADPH, held at 37 °C) into a central internal chamber to initiate a reaction. After the preset reaction time is completed, the mixture (∼38 μl) is then rapidly combined with a quench solution (1 M HCl, ∼160 μl), expelled from the apparatus, and collected in vials. Utilizing this experimental design, the reaction of enzyme-substrate complex (P450 11A1-Adx-AdR and ^3H-cholesterol) was initiated with NADPH on a variable timescale (0–90 s), pooling five replicates of each time point to maximize sensitivity. The products of each quenched reaction (∼1 ml) were extracted with two volumes (5 ml) of CH2Cl2, brought to dryness, and dissolved in CH3OH as described for the benchtop experiments.
Samples (held at 4 °C) were injected (50 μl) using a Agilent 1100 Series HPLC system on a NovaPak (Waters) octadecylsilane (C18) 3.9 mm × 100 mm (4 μm) column (held at 25 °C) with a flow rate of 1.0 ml min^−1 using a gradient mobile phase of (A) H2O and (B) CH3CN as follows (all in % B, v/v): 0 min, 70%; 10 min, 100%; 35.5 min, 100%; 37 min, 30%; and 40 min, 70%).

[1] = 10-fold excess (high) Adx, time 0 s
[2] = 10-fold excess (high) Adx, time 0.25 s
[3] = 10-fold excess (high) Adx, time 0.5 s
[4] = 10-fold excess (high) Adx, time 0.75 s
[5] = 10-fold excess (high) Adx, time 1 s
[6] = 10-fold excess (high) Adx, time 2 s
[7] = 10-fold excess (high) Adx, time 2.5 s
[8] = 10-fold excess (high) Adx, time 3.5 s
[9] = 10-fold excess (high) Adx, time 5 s
[10] = 10-fold excess (high) Adx, time 6 s
[11] = 10-fold excess (high) Adx, time 7.5 s
[12] = 10-fold excess (high) Adx, time 10 s
[13] = 10-fold excess (high) Adx, time 15 s
[14] = 10-fold excess (high) Adx, time 20 s
[15] = 10-fold excess (high) Adx, time 30 s
[16] = 10-fold excess (high) Adx, time 45 s
[17] = 10-fold excess (high) Adx, time 60 s
[18] = 10-fold excess (high) Adx, time 90 s
[19] = second table, headed 10-fold excess (high) Adx, time 0 s
[20] = second table, headed 10-fold excess (high) Adx, time 10 s
[21] = second table, headed 10-fold excess (high) Adx, time 25 s
[22] = second table, headed 10-fold excess (high) Adx, time 50 s
[23] = second table, headed 10-fold excess (high) Adx, time 75 s
[24] = second table, headed 10-fold excess (high) Adx, time 100 s
[25] = second table, headed 10-fold excess (high) Adx, time 200 s
[26] = second table, headed 10-fold excess (high) Adx, time 500 s

Row | SMILES | concentration in single-turnover reaction [1] [µM] | concentration in single-turnover reaction [2] [µM] | concentration in single-turnover reaction [3] [µM] | concentration in single-turnover reaction [4] [µM] | concentration in single-turnover reaction [5] [µM] | concentration in single-turnover reaction [6] [µM] | concentration in single-turnover reaction [7] [µM] | concentration in single-turnover reaction [8] [µM] | concentration in single-turnover reaction [9] [µM] | concentration in single-turnover reaction [10] [µM] | concentration in single-turnover reaction [11] [µM] | concentration in single-turnover reaction [12] [µM] | concentration in single-turnover reaction [13] [µM] | concentration in single-turnover reaction [14] [µM] | concentration in single-turnover reaction [15] [µM] | concentration in single-turnover reaction [16] [µM] | concentration in single-turnover reaction [17] [µM] | concentration in single-turnover reaction [18] [µM] | concentration in single-turnover reaction [19] [µM] | concentration in single-turnover reaction [20] [µM] | also measured
1 | CC(C)CC[C@@H](O)[C@](C)(O)[C@H]1CC[C@H]2[C@@H]3CC=C4C[C@@H](O)CC[C@]4(C)[C@H]3CC[C@]12C [20R,22R-(OH)2 Chol, (20R,22R)-Cholest-5-ene-3β,20,22-triol] | 0 | 0 | 0.1366 | 0.2407 | 0.2278 | 0.1672 | 0.2051 | 0.184 | 0.1911 | 0.1865 | 0.2095 | 0.1817 | 0.1522 | 0.1106 | 0.03422 | 0 | 0 | 0 | 0 | 0.239 | concentration in single-turnover reaction [21]: 0.1619 µM; concentration in single-turnover reaction [22]: 0.07194 µM; concentration in single-turnover reaction [23]: 0.04787 µM; concentration in single-turnover reaction [24]: 0 µM; concentration in single-turnover reaction [25]: 0 µM; concentration in single-turnover reaction [26]: 0 µM
2 | CC(C)CC[C@@H](O)[C@@H](C)[C@H]1CC[C@H]2[C@@H]3CC=C4C[C@@H](O)CC[C@]4(C)[C@H]3CC[C@]12C [22R-OH Chol, 22R-hydroxycholesterol] | 0 | 0.1665 | 0.3411 | 0.2577 | 0.2098 | 0.2144 | 0.1649 | 0.1652 | 0.1576 | 0.1666 | 0.1648 | 0.1591 | 0.1351 | 0.101 | 0.09739 | 0.06928 | 0.06822 | 0.05063 | 0 | 0.2262 | concentration in single-turnover reaction [21]: 0.1763 µM; concentration in single-turnover reaction [22]: 0.1172 µM; concentration in single-turnover reaction [23]: 0.06255 µM; concentration in single-turnover reaction [24]: 0 µM; concentration in single-turnover reaction [25]: 0 µM; concentration in single-turnover reaction [26]: 0 µM
3 | CC(C)CCC[C@@H](C)[C@H]1CC[C@H]2[C@@H]3CC=C4C[C@@H](O)CC[C@]4(C)[C@H]3CC[C@]12C [Cholesterol] | 4.5 | 4.334 | 4.022 | 3.865 | 3.748 | 3.432 | 3.365 | 3.113 | 2.84 | 2.762 | 2.508 | 1.814 | 1.24 | 0.9421 | 0.6054 | 0.4283 | 0.3162 | 0.26 | 4.5 | 2.794 | time to complete reaction, low Adx (5 μM Adx): 3 min; time to complete reaction, excess Adx (50 μM Adx): 1 min; first-order decay, rate of 22R-hydroxylation (k2), single exponential fit (10-fold (50 μM) excess Adx): 0.09 s⁻¹; concentration in single-turnover reaction [21]: 1.649 µM; concentration in single-turnover reaction [22]: 0.7284 µM; concentration in single-turnover reaction [23]: 0.3322 µM; concentration in single-turnover reaction [24]: 0.1591 µM; concentration in single-turnover reaction [25]: 0 µM; concentration in single-turnover reaction [26]: 0 µM
4 | CC(=O)[C@H]1CC[C@H]2[C@@H]3CC=C4C[C@@H](O)CC[C@]4(C)[C@H]3CC[C@]12C [Pregnenolone] | 0 | 0 | 0 | 0.1368 | 0.3142 | 0.6865 | 0.7647 | 1.037 | 1.311 | 1.385 | 1.618 | 2.345 | 2.973 | 3.346 | 3.763 | 4.002 | 4.116 | 4.189 | 0 | 1.241 | concentration in single-turnover reaction [21]: 2.512 µM; concentration in single-turnover reaction [22]: 3.582 µM; concentration in single-turnover reaction [23]: 4.057 µM; concentration in single-turnover reaction [24]: 4.341 µM; concentration in single-turnover reaction [25]: 4.5 µM; concentration in single-turnover reaction [26]: 4.5 µM
